One data set concerns GPC2 mRNA. The data set can be described thus: GPC2 mRNA knockdown by qPCR in TC-32 Ewing's sarcoma cells transfected with siRNA (Example 2). It counts as cell-based, human. As to conditions: TC-32 cells; 72 hours post transfection. Here is the method: siRNAs 1-5 from Table 7 were diluted to 40 nM in OptiMEM media and mixed in a 1:3 ratio (weight by volume) with RNAiMAX. This was incubated for 15 minutes at room temperature and dispensed onto cells plated in a 6 well tissue culture plate. Total RNA samples were collected at either 72 hours post transfection to compare knockdown efficiency (FIG. 2A), or at 24, 48, 72 or 96 hours post transfection to determine the extent of GPC2 mRNA knockdown over time (FIG. 2B). Expression levels of mRNA of GPC2 were measured in these samples using primers specific for GPC2 obtained commercially from Thermofisher (Carlsbad, Calif.) and standard qPCR technique.
(In general: Real-time PCR tracks product formation cycle by cycle.)

The next data set deals with CHLA-172 cells. The data set can be described thus: Doxorubicin IC50 in siRNA-transfected cells, Cell Titer Glo viability (Example 8). It counts as cell-based. The following applies: for IC50: CHLA-172 cells transfected with the labelled siRNA, doxorubicin added 24 hours post transfection, 72 hour incubation. (In general: In ATP-based viability assays light output follows the ATP content of the culture.)

The next data set has as its system KELLY cells. The description is as above. It counts as cell-based. The following applies: for Data Summary: effect of knockdown on sensitivity to doxorubicin: KELLY; for IC50: KELLY cells transfected with the labelled siRNA, doxorubicin added 24 hours post transfection, 72 hour incubation.
In data set [1] the test system is CHP212, SKNAS, SKNBE2 or CHLA90 neuroblastoma cells. The data set can be described thus: Tumor spheroid formation after siRNA transfection, low attachment plate (Example 11). As to conditions: 96 hours following transfection, in cells with the highest degree of GPC2 mRNA knockdown (FIG. 6). It is filed as cell-based. The method, then:
The effect of GPC2 knockdown on tumor spheroid formation was assessed. CHP212, SKNAS, SKNBE2 or CHLA90 neuroblastoma cells were transfected with either a scrambled control siRNA or with a GPC2 siRNA of sequence 5 from Table 7 using the RNAiMAX Lipofectamine kit (Invitrogen, Carlsbad, Calif.), as previously described. Following transfection, cells were plated in a low attachment 96 well plate for spheroid formation while under siRNA treatment.

d = 2'-deoxy (DNA); r = 2'-OH (RNA)

As to “GPC2 siRNA 3: siRNA duplex: sense CCUGCUUGGACCUCGAUAA[dT][dT] (SEQ ID NO: 207), anti-sense UUAUCGAGGUCCAAGCAGG[dT][dT] (SEQ ID NO: 208) (sense CCUGCUUGGACCUCGAUAANN; antisense UUAUCGAGGUCCAAGCAGGNN; 3' dTdT overhangs, chemistry not fully specified; listed as Homo sapiens)”, the “Degree of GPC2 knockdown among siRNA sequences 1-5” value with GPC2 mRNA is reported as “greatest degree of GPC2 knockdown”. The midpoint of inhibition in the data set on CHLA-172 cells, the IC50, lay at 2 µM. Further, in the data set with KELLY cells, the “Data Summary: effect of knockdown on sensitivity to doxorubicin” value is given as “not increase sensitivity” and 0.07 µM corresponded to half-maximal inhibition (IC50).
Regarding “GPC2 siRNA 5: siRNA duplex: sense CUCAGUAGCCCAGCACUCU[dT][dT] (SEQ ID NO: 211), anti-sense AGAGUGCUGGGCUACUGAG[dT][dT] (SEQ ID NO: 212) (sense CUCAGUAGCCCAGCACUCUTT; antisense AGAGUGCUGGGCUACUGAGTT; sugars from the 5' end r19 d2, backbone not given here; listed as Homo sapiens)”, the “Degree of GPC2 knockdown among siRNA sequences 1-5” value in the data set on GPC2 mRNA is given as “greatest degree of GPC2 knockdown”. For the same substance, the figures for the “Data Summary: effect of knockdown on sensitivity to doxorubicin” value in the data set on CHLA-172 cells (CHLA-172) and in the data set on KELLY cells were “KD with sequence 5 increases” and “not increase sensitivity”, respectively. The results for the IC50 in the data set with CHLA-172 cells and in the data set on KELLY cells were 0.9 µM and 0.06 µM, respectively. Besides, the Tumor spheroid formation entry in data set [1] is reported as “greatest inhibition in their ability to form spheroids”.

One may read the IC50 as the midpoint of a concentration-inhibition curve. Low readings indicate greater potency in that assay, high ones weaker potency in that assay.

These data come from US20210171948A1, “COMPOSITIONS AND METHODS FOR TARGETING GLYPICAN-2 IN THE TREATMENT OF CANCER” (Shepherd Therapeutics, Inc., priority 2019, published 2021).
